Values of other authors, collected in patent US8410082B2, “Fluorinated diaryl urea derivatives” (Concert Pharmaceuticals, Inc., priority 2009, dated 2013).

Settings: main circulating metabolite of sorafenib in plasma

[O-][n+]1ccccc1 [pyridine N-oxide]
share of circulating analytes at steady-state: 9-16%
